Data: PubChem BioAssay AID1687

Molecular target: pyruvate kinase (Geobacillus stearothermophilus)
Assay: pyruvate kinase inhibitors and activators, confirmation, biochemical, Geobacillus stearothermophilus (AID 1687)
Conditions: purified enzyme, LDH-coupled NADH absorbance 340 nm

SMILES | AC50
COc1cccc(CN2c3cccc4cccc(c34)S2(=O)=O)c1 | 5.5 µM
CCN(CC)CCn1c2ccccc2n2cc(-c3ccc4c(c3)OCO4)nc12 | 2.2 µM
Cn1c2ccccc2n2cc(-c3ccc4c(c3)OCO4)nc12 | 1 µM
NNC(=O)c1ccc(CN2c3cccc4cccc(c34)S2(=O)=O)cc1 | 4.9 µM
CN(C)CCCN(C(=O)c1ccc(Cl)s1)c1nc2cc3c(cc2s1)OCO3 | 8.9 µM
C=CCn1c2ccccc2n2cc(-c3ccc4c(c3)OCO4)nc12 | 10.5 µM
CN(C)CCn1c2ccccc2n2cc(-c3ccc4c(c3)OCO4)nc12 | 1.7 µM
O=C(CN1c2cccc3cccc(c23)S1(=O)=O)NCc1ccccc1OC(F)F | 7.6 µM
CCn1c2ccccc2n2cc(-c3ccc4c(c3)OCO4)nc12 | 2 µM
